Experimental data taken from PMC7734281, “Functionalized Oxoindolin Hydrazine Carbothioamide Derivatives as Highly Potent Inhibitors of Nucleoside Triphosphate Diphosphohydrolases” (Frontiers in Pharmacology, 2020).
“Also recorded” adds a separate entry of the source.

Legend:
[1] = target: T1, h-NTPDase2 (Homo sapiens, UniProt Q9Y5L3); test: h-NTPDase2 inhibition, malachite green assay; format: biochemical; details: Lineweaver-Burk plot
T1 construct: made in house; host or cells: COS-7 cells, transient transfection; crude protein extract after sonication
T1 sequence (Q9Y5L3 1-495): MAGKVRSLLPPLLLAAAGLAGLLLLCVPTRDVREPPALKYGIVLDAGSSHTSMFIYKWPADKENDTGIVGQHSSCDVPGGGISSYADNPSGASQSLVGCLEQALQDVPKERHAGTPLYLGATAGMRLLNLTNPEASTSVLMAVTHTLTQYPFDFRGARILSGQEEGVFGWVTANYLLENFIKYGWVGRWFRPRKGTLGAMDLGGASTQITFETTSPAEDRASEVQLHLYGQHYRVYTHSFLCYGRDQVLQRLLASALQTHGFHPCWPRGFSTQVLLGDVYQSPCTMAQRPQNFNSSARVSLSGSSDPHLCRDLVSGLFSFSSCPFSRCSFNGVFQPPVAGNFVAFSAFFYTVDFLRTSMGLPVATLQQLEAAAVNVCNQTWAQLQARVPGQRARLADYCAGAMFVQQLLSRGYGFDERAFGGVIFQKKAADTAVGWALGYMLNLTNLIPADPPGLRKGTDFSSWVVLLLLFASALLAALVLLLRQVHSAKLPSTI

[2] = test system: NTPDase3 mRNA; test: NTPDase3 mRNA expression in mice islets by real time qPCR; format: cell-based
Procedure: Freshly isolated mice islets were incubated in KRBB at 37°C with glucose (3 mM). After 45 min, these islets were treated with test compounds in KRBB at 37°C for 3 h, in the presence of stimulatory glucose concentration. Once the incubation was complete, supernatant was removed carefully, and RNA was extracted from these islets.
Total RNA was extracted using TRIzol reagent, according to manufacturer’s instruction. The concentration of isolated RNA was quantified by using Lvis plate method (FLUOstar Omega, BMG Labtech, Ortenberg, Germany). This RNA was then reverse transcribed to cDNA in a total reaction volume of 20 µl. Briefly, a reaction mixture containing RNA (1 µg) and oligo-dT (20 μM, 1 µl) was prepared and volume was adjusted to 12 µl with nuclease free water. The prepared mixture was incubated at 65°C for 5 min and then immediately chilled on ice. Afterward, 8 µl of master mix containing 5X reaction buffer (4 µl), rnase inhibitor (1 µl), dNTPs mix (10 mM, 2 µl) and reverse transcriptase (1 µl) was added to above sample. After gentle pipetting, sample was run under following conditions: 25°C for 5 min, 42°C for 70 min and 70°C for 5 min. Once the cDNA was synthesized, real time quantitative PCR was conducted by using PikoReal 96 Real-Time PCR system (Thermo Scientific, Vantaa, Finland). […] Relative expression was determined by normalization to β actin mRNA by ΔΔCT method.

Structure (SMILES) | Mode of inhibition of h-NTPDase2 [1] | Effect on expression level of β-actin (housekeeping gene) ([2]; mice islets treated 3 h) | Effect on NTPDase3 gene expression (mRNA) ([2]; mice islets treated 3 h at stimulatory glucose, normalized to β actin, versus control)
COc1ccc(OC)c(NC(=S)N/N=C2\C(=O)Nc3ccccc32)c1 [8j, (Z)-N-(2,5-dimethoxyphenyl)-2-(2-oxoindolin-3-ylidene)hydrazine-1-carbothioamide] | competitive |  | 
CCNC(=S)N/N=C1\C(=O)Nc2ccccc21 [8m, (Z)-N-ethyl-2-(2-oxoindolin-3-ylidene)hydrazine-1-carbothioamide] |  | not affected | no significant effect (p > 0.05); also recorded: had not suppressed the gene expression of NTPDase3; also recorded: without affecting the NTPDase3 gene expression
